Target: estrogen receptor alpha (ESR1) (Homo sapiens, UniProt P03372)
Assay: cell-based
Details: for ER-alpha MCF7 HCS Sinf: MCF7 breast cancer cells, 4 hours, plateau of the maximal effect, DMSO and Fulvestrant define 0% and 100% changes in ESR1
Experimental: Where more than one name is associated with a Formula I compound or intermediate, the chemical structure shall define the compound.
Cell plates were incubated at 37° C., for 4 hours. Fixation and permeabilization were carried out using a Biotek EL406 plate washer and dispenser as follows. […] Samples were incubated 30 minutes. Well contents was aspirated and 50 ul/well of Phosphate Buffered Saline (PBS) containing 0.5% w/v bovine serum albumen, 0.5% v/v Triton X-100 (Antibody Dilution Buffer) was added to each well. Samples were incubated for 30 minutes. Well contents were aspirated and washed 3 times with 100 ul/well of PBS. Immunofluorescence staining of estrogen receptor alpha (ESR1) was carried out using a Biotek EL406 plate washer and dispenser as follows. […] Samples were incubated for 2 hours at room temperature. Samples were washed 4 times with 100 ul/well of PBS. […] Samples were incubated for 2 hours at room temperature. Samples were washed 3 times with 100 ul/well of PBS using a Biotek EL406. Quantitative fluorescence imaging of ESR1 was carried out using a Cellomics Arrayscan V (Thermo). […] Channel 1 (DNA stain) was used to define the nuclear region (Circ). […] Data analysis was carried out using Genedata Screener Software, with DMSO and 5 nM Fulvestrant treated samples being used to define the 0% and 100% changes in ESR1. The “Robust Fit” method was used to define the inflexion point of curve (EC50) and the plateau of the maximal effect (Sin f).

estrogen receptor alpha (ESR1), sequence (P03372 whole entry): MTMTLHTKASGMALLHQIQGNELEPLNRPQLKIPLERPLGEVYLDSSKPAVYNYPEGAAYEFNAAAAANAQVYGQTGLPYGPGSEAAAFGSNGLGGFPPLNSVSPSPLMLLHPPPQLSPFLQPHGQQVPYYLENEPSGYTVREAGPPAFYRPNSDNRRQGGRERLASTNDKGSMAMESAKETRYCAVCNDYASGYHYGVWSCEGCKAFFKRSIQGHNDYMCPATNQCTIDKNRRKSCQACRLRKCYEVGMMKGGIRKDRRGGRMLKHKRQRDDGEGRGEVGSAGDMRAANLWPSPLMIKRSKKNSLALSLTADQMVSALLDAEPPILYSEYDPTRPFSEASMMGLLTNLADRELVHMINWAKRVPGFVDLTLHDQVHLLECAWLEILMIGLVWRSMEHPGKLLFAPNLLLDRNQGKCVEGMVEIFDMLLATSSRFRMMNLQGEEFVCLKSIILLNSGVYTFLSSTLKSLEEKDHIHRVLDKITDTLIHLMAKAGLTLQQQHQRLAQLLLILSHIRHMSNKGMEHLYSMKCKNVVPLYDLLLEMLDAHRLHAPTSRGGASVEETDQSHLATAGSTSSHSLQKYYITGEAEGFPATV

| SMILES | EC50 | ER-alpha MCF7 HCS Sinf |
| --- | --- | --- |
| Cc1cc(-c2c(C)c3cc(O)ccc3n2Cc2ccc(OCCN3CC[C@@H](CF)C3)cc2)ccc1O [Example 42, (R)-1-(4-(2-(3-(fluoromethyl)pyrrolidin-1-yl)ethoxy)benzyl)-2-(4-hydroxy-3-methylphenyl)-3-methyl-1H-indol-5-ol] | 0.025 nM | −97.5% |
| Cc1c(-c2ccc(F)cc2)n(Cc2ccc(OCCN3CC(CF)C3)cc2)c2ccc(O)cc12 [Example 3, 1-(4-(2-(3-(Fluoromethyl)azetidin-1-yl)ethoxy)benzyl)-2-(4-fluorophenyl)-3-methyl-1H-indol-5-ol] | 5.5 nM | −92% |
| Oc1ccc([C@H]2Sc3cc(O)ccc3O[C@H]2c2ccc(OCCN3CC(CF)C3)cc2)cc1 (racemic) [Example 29, 2-(4-(2-(3-(Fluoromethyl)azetidin-1-yl)ethoxy)phenyl)-3-(4-hydroxyphenyl)-2,3-dihydrobenzo[b][1,4]oxathiin-6-ol] | 0.55 nM | −101% |
| O=C(c1ccc(OCCN2CC(CF)C2)cc1)c1c(-c2ccccc2)sc2cc(O)ccc12 [Example 39, (4-(2-(3-(fluoromethyl)azetidin-1-yl)ethoxy)phenyl)(6-hydroxy-2-phenylbenzo[b]thiophen-3-yl)methanone] | 1.6 nM | −96% |
| C[C@@H](COc1ccc(Oc2c(-c3ccc(S(C)(=O)=O)cc3)ccc3cc(O)ccc23)cc1)N1CC[C@@H](CF)C1 [Example 66, 5-[4-[(2S)-2-[(3R)-3-(fluoromethyl)pyrrolidin-1-yl]propoxy]phenoxy]-6-(4-methylsulfonylphenyl) naphthalen-2-ol] | 0.006 nM | −93.4% |
| O=C(c1ccc(OCCN2CC(CF)C2)c(F)c1)c1c(-c2ccccc2Cl)noc1-c1ccc(O)cc1 [Example 17, [3-(2-Chloro-phenyl)-5-(4-hydroxy-phenyl)-isoxazol-4-yl]-{3-fluoro-4-[2-(3-fluoromethyl-azetidin-1-yl)-ethoxy]-phenyl}-methanone] | 0.3 nM | −102% |
| Oc1ccc2c(c1)C1=C(c3cc(O)ccc3OCC1)[C@@H](c1ccc(OCCN3CC(CF)C3)cc1)O2 [Example 75, (R)-8-(4-(2-(3-(fluoromethyl)azetidin-1-yl)ethoxy)phenyl)-1,8-dihydro-2H-benzo[2,3]oxepino[4,5-c]chromene-6,12-diol] | 3.2 nM | −99.7% |
| Oc1ccc2c(c1)CC[C@H](c1ccccc1)[C@@H]2c1ccc(OCCN2CC(CF)C2)cc1 (racemic) [Example 34, cis-5-(4-(2-(3-(Fluoromethyl)azetidin-1-yl)ethoxy)phenyl)-6-phenyl-5,6,7,8-tetrahydronaphthalen-2-ol] | 0.016 nM | −99.3% |
| Oc1ccc(-c2onc(-c3ccccc3Cl)c2-c2ccc(OCCN3CC(CF)C3)cc2)cc1 [Example 14, 4-(3-(2-Chlorophenyl)-4-(4-(2-(3-(fluoromethyl)azetidin-1-yl)ethoxy)phenyl)isoxazol-5-yl)phenol] | 0.21 nM | −99% |
| FC[C@@H]1CCN(CCOc2ccc(/C(=C(\c3ncc(C(F)(F)F)cc3Cl)C3CCC3)c3ccc4[nH]nc(F)c4c3)cc2)C1 [Example 27, (R,E)-5-(2-(3-Chloro-5-(trifluoromethyl)pyridin-2-yl)-2-cyclobutyl-1-(4-(2-(3-(fluoromethyl)pyrrolidin-1-yl)ethoxy)phenyl)vinyl)-3-fluoro-1H-indazole] | 0.85 nM | −73% |

Source: patent publication US9845291B2, “Estrogen receptor modulators and uses thereof” (Genentech, Inc., priority 2014, dated 2017)
